In ChEMBL document CHEMBL4190176 (Medchemcomm, 2016):

Target: T1, Bifunctional epoxide hydrolase 2 (Homo sapiens, UniProt P34913)
T1 sequence (P34913 whole entry): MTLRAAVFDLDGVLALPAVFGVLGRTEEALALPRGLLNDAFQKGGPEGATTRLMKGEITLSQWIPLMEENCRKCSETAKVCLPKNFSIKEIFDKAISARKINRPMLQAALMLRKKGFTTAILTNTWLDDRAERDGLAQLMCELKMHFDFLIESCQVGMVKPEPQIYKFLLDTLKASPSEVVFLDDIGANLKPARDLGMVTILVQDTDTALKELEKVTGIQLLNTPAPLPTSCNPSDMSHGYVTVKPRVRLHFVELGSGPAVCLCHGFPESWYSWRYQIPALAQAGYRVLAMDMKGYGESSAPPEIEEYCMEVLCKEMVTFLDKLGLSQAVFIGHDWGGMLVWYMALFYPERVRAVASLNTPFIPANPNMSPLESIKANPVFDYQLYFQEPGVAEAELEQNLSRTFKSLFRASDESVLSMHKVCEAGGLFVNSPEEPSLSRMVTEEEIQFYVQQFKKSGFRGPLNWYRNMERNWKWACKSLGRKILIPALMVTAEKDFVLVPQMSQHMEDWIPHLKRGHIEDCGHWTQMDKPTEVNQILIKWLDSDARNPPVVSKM
Assay: Inhibition of recombinant human soluble epoxide hydrolase using PHOME as substrate incubated for 5 mins followed by substrate addition by fluorescence assay

SMILES | IC50 [nM]
CCOC(=O)C1=C(c2ccccc2)NC(=O)NC1c1ccc(NC(=O)c2ccccc2C(=O)O)cc1 (stereo not drawn) | 1.92
CCOC(=O)C1=C(c2ccccc2)NC(=O)NC1c1ccc(NC(=O)c2ccccc2)cc1 (stereo not drawn) | 1.22
CCOC(=O)C1=C(c2ccccc2)NC(=O)NC1c1ccc(NC(=O)c2ccc([N+](=O)[O-])cc2)cc1 (stereo not drawn) | 2
CCOC(=O)C1=C(c2ccccc2)NC(=O)NC1c1ccc(NC(=O)c2ccc(Cl)cc2)cc1 (stereo not drawn) | 0.48

The remaining lines, values ahead:

IC50 [nM] | SMILES
2.22 | CCOC(=O)C1=C(c2ccccc2)NC(=O)NC1c1ccc(NC(=O)CCC(=O)O)cc1 (stereo not drawn)
1.82 | CCOC(=O)C1=C(c2ccccc2)NC(=O)NC1c1ccc(NC(=O)c2ccc(OC)cc2)cc1 (stereo not drawn)
0.96 | CCOC(=O)C1=C(c2ccccc2)NC(=O)NC1c1ccc(NC(=O)c2ccc(F)cc2)cc1 (stereo not drawn)
0.48 | CCOC(=O)C1=C(c2ccccc2)NC(=O)NC1c1ccc(NC(=O)c2ccc(C)cc2)cc1 (stereo not drawn)
